Assay [1] has as its system panel of 27 Gram-positive pathogens. In words: MIC assay, panel of Gram-positive pathogens. As to conditions: Staphylococcus aureus; range over panel of 27 Gram-positive pathogens incl. VRSA and resistant Enterococcal strains (FIG. 6); read-out: minimum inhibitory concentrations. The assay is classed as cell-based. How it is done:
(§1) Bacterial strains and growth conditions. S. aureus strains were grown in tryptic soy broth (TSB) (BD, Franklin Lakes, N.J., USA). E. faecium and E. faecalis strains were grown in brain-heart infusion (BHI) broth (BD, Franklin Lakes, N.J., USA), and four Gram-negative species, Klebsiella pneumoniae, Acinetobacter baumannii, Pseudomonas aeruginosa, and Enterobacter aerogenes were grown in Luria Bertani (LB) broth (BD, Franklin Lakes, N.J., USA). All bacteria were grown at 37° C. at 200 r.p.m.
(§2) Minimal inhibitory concentration (MIC) assay. The MICs of antibiotics were determined by the standard micro-dilution method recommended by the Clinical and Laboratory Standards Institute. MIC assays were conducted in biological triplicate.

Assay [2] concerns daptomycin-intermediate or-resistant Enterococcal strains. Put plainly: MIC assay, Enterococcal strains. As to conditions: Enterococcus; range over several daptomycin-intermediate or -resistant Enterococcal strains. It is filed as cell-based. The method, then:
as §1, §2

Assay [3] deals with VRSA strain VRS1 persisters. In words: Persister killing assay. The assay is classed as cell-based, S. aureus. The settings on record: linezolid and daptomycin at 100× MIC; bithionol at indicated concentrations (FIG. 1E). How it is done:
Persister killing assay. […] Persister cells of MRSA MW2 or VRSA VRS1 were prepared by growing cultures overnight to stationary phase at 37° C. at 200 rpm and washing three times with PBS. 1 mL of ˜1×10^8 CFU/mL MRSA persisters was added to 1 mL of PBS containing a 2-fold higher concentration of the desired concentration of antibiotics in a 96-well assay block (Corning Costar 3960). For assays with daptomycin, PBS was supplemented with 50 μg/mL CaCl2. The assay block was incubated at 37° C. with shaking at 200 rpm. At various times, 400 μl samples were removed, washed once with PBS, serially diluted and spot-plated on TSA plates. Colonies were counted after overnight incubation at 37° C. to determine the titer of live cells. These experiments were conducted in triplicate.

The nature of assay [4]: Giant unilamellar vesicles (GUVs) assay, bacterial mimetic. The method, then: (§3) Giant unilamellar vesicles (GUVs) assay. GUVs were prepared by slightly modifying the electroformation method described previously. 1,2-dioleoyl-sn-glycero-3-phosphocholine (DOPC), 1,2-dioleoyl-sn-glycero-3-phospho-(1′-rac-glycerol) (DOPG), 1-palmitoyl-2-oleoyl-glycero-3-phosphocholine (POPC), cholesterol (ovine wool) and 1,2-dioleoyl-sn-glycero-3-phosphoethanolamine-N-(lissamine rhodamine B sulfonyl) (18:1 Liss Rhod PE) were purchased from Avanti Polar Lipids (Alabaster, Ala., USA). 4 mM lipid mixtures consisting of DOPC/DOPG/18:1 Liss Rhod PE (7:3:0.005) and POPC/cholesterol/18:1 Liss Rhod PE (7:3:0.005) were dissolved in chloroform respectively. Same procedure was used to prepare both kinds of GUVs. Indium tin oxide (ITO)-coated slides (50×75×1.1 mm, Delta Technologies, Loveland, Colo., USA) were coated with […] of the lipid mixture and dried in a vacuum chamber for 2 h to remove chloroform. An electroformation chamber was made by placing a 2 mm thick Teflon spacer between the two lipid-coated ITO slides. […] After adding 1 μl of compound solution to a well (final compound concentration: 1× MIC), the GUVs were observed and imaged with an optical microscope equipped with fluorescence contrast and a digital camera (63x objectives, Axio Observer. A1 & AxioCam MRm, Zeiss, Germany). […]

The nature of assay [5]: Giant unilamellar vesicles (GUVs) assay, mammalian mimetic. How it is done: as §3
The test system of assay [6] is Gram-negative bacteria including Escherichia coli and Shigella dysenteriae. The settings on record: previously described; cited from earlier work.

Here are results for one compound from patent US20220324796A1, “ANTIBIOTIC COMPOUNDS” (The General Hospital Corporation, priority 2019, published 2022).

In brackets after ≈: the same amount, converted by molar mass.

As to `Oc1c(Cl)cc(Cl)cc1Sc1cc(Cl)cc(Cl)c1O` [bithionol, 6,6′-thio-bis-(2,4-dichlorophenol)], the MIC in assay [1] was 0.5 to 2 µg/mL (≈ 1.4 to 5.62 µM); in assay [2], 0.5 to 2 µg/mL (≈ 1.4 to 5.62 µM); in assay [6] it was more than 100 µg/mL. Moreover, in assay [3], the “activity against VRSA VRS1 persisters” value is on record as “highly efficacious at eradicating”. Besides, the “effect on DOPC/DOPG GUVs” value in assay [4] (1 μg/mL) is recorded as “Lipid aggregates formed on the surfaces of the GUVs”; in assay [4] (10 μg/mL), “the GUVs burst”. Moreover, in assay [5], the “effect on 7POPC/3 cholesterol GUVs” value is on record as “did not cause observable effects”.
